# Assay results reported in patent publication US9937204B2 (priority 2008, dated 2018).
# Tests used:
# Candida species = assay: Time-kill assay, all species together; format: cell-based; conditions: chlorhexidine gluconate concentrations tested (0.015-0.12%); within one minute of exposure
# Protocol: Following exposure, 100 μl aliquots were diluted 50% with 0.85% saline and plated onto potato dextrose agar plates. The aliquots were allowed to dry and then were streaked to remove the yeast from the compound. The plates were incubated at 35° C. for 24 hours. Colony counts were taken and were compared to initial inoculum. The same test was done treating the four Candida species with chlorhexidine gluconate at concentrations ranging from 0.015-0.12%. Chlorhexidine gluconate at concentration 0.12% is commonly prescribed to patients with oral disease.
# non-albicans isolates = conditions: out of 100 non-albicans isolates from HIV patients with thrush; cited from earlier work
SMILES,Time-kill result in words (colony count) (Candida species),Number of isolates resistant (non-albicans isolates)
"N=C(NCCCCCCNC(=N)NC(=N)Nc1ccc(Cl)cc1)NC(=N)Nc1ccc(Cl)cc1.O=C(O)[C@H](O)[C@@H](O)[C@H](O)[C@H](O)CO.O=C(O)[C@H](O)[C@@H](O)[C@H](O)[C@H](O)CO [chlorhexidine gluconate, Chlorhexidine gluconate]",did not reduce the colony count,–
OC(Cn1cncn1)(Cn1cncn1)c1ccc(F)cc1F [fluconazole],–,88
